Data set [1] deals with mouse embryonic fibroblasts (MEFs). Kind of data set: TNF-induced necroptosis (T/S/Z), cell viability by ATP levels. The class given is cell-based. Particulars: Fibroblast, 24 h, MEF, T/S/Z 24 h.
For the next data set, the target named is T1, MKK4 (Homo sapiens, UniProt P45985).
T1 construct: purchased Reaction Biology Corporation
The data set is described as follows: RBC kinase panel. The class given is biochemical. As to conditions: ATP 10 μM, Data1, Data2. The procedure:
(§1) PK68 was tested at 1 μM in duplicate against a panel of 369 human kinases at Reaction Biology Corporation. Results are viewed in the human kinome phylogenetic tree.
(§2) ^a Compound PK68 was tested at 1 μM in duplicate against 369 kinases using the RBC kinase panel service of Reaction Biology Corporation. All the ATP concentrations used were 10 μM. […] Full protocol details are available at http://www.reactionbiology.com.

For a further data set, the target named is T2, NIM1 (Homo sapiens, UniProt Q8IY84).
T2 construct: purchased Reaction Biology Corporation
T2 sequence (Q8IY84 whole entry): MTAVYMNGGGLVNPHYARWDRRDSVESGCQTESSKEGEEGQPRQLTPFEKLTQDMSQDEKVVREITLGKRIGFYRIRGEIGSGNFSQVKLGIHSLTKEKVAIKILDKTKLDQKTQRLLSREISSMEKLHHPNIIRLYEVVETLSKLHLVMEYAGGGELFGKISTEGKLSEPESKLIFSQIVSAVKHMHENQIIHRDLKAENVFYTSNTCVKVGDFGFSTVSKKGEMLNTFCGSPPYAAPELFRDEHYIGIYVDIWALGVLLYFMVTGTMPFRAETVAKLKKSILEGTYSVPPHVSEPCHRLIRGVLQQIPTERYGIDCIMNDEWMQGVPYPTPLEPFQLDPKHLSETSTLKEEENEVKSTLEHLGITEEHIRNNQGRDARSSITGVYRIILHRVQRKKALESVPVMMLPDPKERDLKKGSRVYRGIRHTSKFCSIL
The data set is described as follows: RBC kinase panel. Particulars: ATP 10 μM, Data1, Data2. It is filed as biochemical. The method, then: as §1, §2

The next data set addresses T3, GRK4 (Homo sapiens, UniProt P32298).
T3 construct: purchased Reaction Biology Corporation
Kind of data set: RBC kinase panel. It is filed as biochemical. As to conditions: ATP 10 μM, Data1, Data2. The method, then: as §1, §2

For another data set, the target named is T4, p70S6Kb/RPS6KB2 (Homo sapiens, UniProt Q9UBS0).
T4 construct: purchased Reaction Biology Corporation
T4 sequence (Q9UBS0 whole entry): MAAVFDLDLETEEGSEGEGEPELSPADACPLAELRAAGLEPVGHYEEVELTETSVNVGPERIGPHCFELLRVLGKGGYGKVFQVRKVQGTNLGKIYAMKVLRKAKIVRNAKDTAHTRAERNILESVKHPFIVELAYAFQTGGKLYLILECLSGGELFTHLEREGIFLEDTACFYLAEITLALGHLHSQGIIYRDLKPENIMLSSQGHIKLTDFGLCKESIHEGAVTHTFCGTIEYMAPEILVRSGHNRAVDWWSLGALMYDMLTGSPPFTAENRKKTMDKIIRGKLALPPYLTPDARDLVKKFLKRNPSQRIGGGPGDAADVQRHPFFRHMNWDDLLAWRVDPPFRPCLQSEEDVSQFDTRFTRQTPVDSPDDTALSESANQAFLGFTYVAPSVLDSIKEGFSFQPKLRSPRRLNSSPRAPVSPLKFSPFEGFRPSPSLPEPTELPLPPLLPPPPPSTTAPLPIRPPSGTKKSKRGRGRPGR
The data set is described as follows: RBC kinase panel. Particulars: ATP 10 μM, Data1, Data2. It is filed as biochemical. The method, then:
as §1, §2

The target of a further data set is T5, DYRK1/DYRK1A (Homo sapiens, UniProt Q13627).
T5 construct: purchased Reaction Biology Corporation
The data set is described as follows: RBC kinase panel. It is filed as biochemical. Particulars: ATP 10 μM, Data1, Data2. The method, then: as §1, §2

In the next data set the target is T6, CK1a1 (Homo sapiens, UniProt P48729).
T6 construct: purchased Reaction Biology Corporation
T6 sequence (P48729 whole entry): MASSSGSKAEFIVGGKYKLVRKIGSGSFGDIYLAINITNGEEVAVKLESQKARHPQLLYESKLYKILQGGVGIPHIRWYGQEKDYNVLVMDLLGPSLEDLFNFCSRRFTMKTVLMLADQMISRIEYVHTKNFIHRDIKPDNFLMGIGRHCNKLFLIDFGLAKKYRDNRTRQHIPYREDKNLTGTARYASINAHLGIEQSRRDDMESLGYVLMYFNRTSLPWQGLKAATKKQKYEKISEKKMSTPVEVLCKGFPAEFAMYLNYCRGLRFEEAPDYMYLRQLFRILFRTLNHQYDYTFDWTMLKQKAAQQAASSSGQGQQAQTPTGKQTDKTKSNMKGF
The data set is described as follows: RBC kinase panel. The class given is biochemical. Particulars: ATP 10 μM, Data1, Data2. The method, then:
as §1, §2

For data set [2], the system named is RFP-LL/2 cells through CD31+ endothelial cell monolayer. Kind of data set: Transendothelial migration assay. The class given is cell-based, mouse. As to conditions: 2 h pretreatment, 20 h. The procedure:
Studies have shown that RIPK1 kinase activity is involved in the promotion of tumor metastasis through death receptor 6-dependent necroptosis of endothelial cells[22] or VEGF-dependent activation of vascular permeability. We thus evaluated the therapeutic effect of PK68 on lung metastasis of mouse melanoma B16-F10 cells in vivo. […] After 2 weeks, the metastasis of B16-F10 cells was measured by histological analysis and assessed as the number of metastasis nodules in the lung. […] Two weeks after intravenous injection of RFP-LL/2 cells, RFP^+ LL/2 cells were isolated from the tumor tissues by flow cytometer sorting and no signal of phosphorylated RIPK1 was detected in these tumors cells (Supplementary Fig. 22). Six hours after intravenous injection of RFP-LL/2 cells into C57BL/6 mice, the RFP-LL/2 cells have extravasated through blood vessels into the lung (Supplementary Fig. 23). […] Further, we evaluated the effect of PK68 on the tumor cell transmigration across the cultured endothelium. […]
Primary CD31^+ endothelial cells isolated from lungs by using CD31 beads (Miltenyi Biotec) were used for the transendothelial migration assay as previously described. […] Then fluorescence picture of transmigrated RFP-LL/2 cells were taken at ×40 magnification under the microscope (Nikon), and the intensity of fluorescence was analyzed by Image J software. […]

The nature of data set [3]: 14-day preliminary toxicity, daily oral gavage. The class given is in vivo, C57BL/6 mice. The method, then: (§3) Data represent mean value ± standard deviation. b Plasma pharmacokinetic parameters of PO and IV. c, d C57BL/6 mice (n = 5) were treated with the indicated daily oral gavage dosing of PK68 for successive 14 days. Body weight (c) and hematoxylin-eosin (H&E) staining (d) of mice were analyzed. Control mice received an equal amount of vehicle. Magnification: ×40. Data represent mean value ± standard deviation TEXT PRINTED IN THE PICTURE: (b) no label printed: Tmax (hr): 0.5 (PO (Gavage)); Cmax (ng/mL): 2423 (PO (Gavage)); AUC0-24 (ng/mL*hr): 4821 (PO (Gavage)); AUC0-24 (ng/mL*hr): 1588 (IV (Bolus)); AUCINF (ng/mL*hr): 4897 (PO (Gavage)); AUCINF (ng/mL*hr): 1590 (IV (Bolus)); t1/2 (hr): 1.3 (PO (Gavage)); t1/2 (hr): 1.0 (IV (Bolus)); MRT (hr): 1.8 (PO (Gavage)); MRT (hr): 0.8 (IV (Bolus)); CL (mL/hr/kg): 1258 (IV (Bolus)); CL (mL/min/kg): 21 (IV (Bolus)); Vss (mL/kg): 1009 (IV (Bolus)); Vss (L/kg): 1.0 (IV (Bolus)); F(%): 61 (PO (Gavage)) DOUBTS OF THE COPYIST ABOUT THIS PICTURE: Panel b prints no substance label with the PK table. The name PK68 is printed only in panels c and d, so the label is left empty.
(§4) Judging by the PK time curve, the observed plasma levels of PK68 were above its EC50 over a period of 8 h. […] These doses were meant to determine the preliminary toxicity effects of PK68 (Fig. 6c). […] We further performed histology of various tissues from mice that had received 14-day treatment of PK68.

Data set [4] is described as follows: Pharmacokinetic profile in mice. The class given is in vivo. Particulars: ICR, mouse, plasma; for AUC(0-t): read-out: AUC0-24. The procedure: Encouraged by our overall satisfactory in vitro potency and selectivity data for PK68, we decided to assess its in vivo pharmacokinetic profile.
as §3, §4

[5] abbreviates: 5 and 25 mg/kg, daily oral gavage, 14 days.

SMILES strings stand for the structures. “Also recorded” adds a separate entry of the source. Read-outs that look alike come from different tables or passages of the source.

T3 sequence (P32298 whole entry): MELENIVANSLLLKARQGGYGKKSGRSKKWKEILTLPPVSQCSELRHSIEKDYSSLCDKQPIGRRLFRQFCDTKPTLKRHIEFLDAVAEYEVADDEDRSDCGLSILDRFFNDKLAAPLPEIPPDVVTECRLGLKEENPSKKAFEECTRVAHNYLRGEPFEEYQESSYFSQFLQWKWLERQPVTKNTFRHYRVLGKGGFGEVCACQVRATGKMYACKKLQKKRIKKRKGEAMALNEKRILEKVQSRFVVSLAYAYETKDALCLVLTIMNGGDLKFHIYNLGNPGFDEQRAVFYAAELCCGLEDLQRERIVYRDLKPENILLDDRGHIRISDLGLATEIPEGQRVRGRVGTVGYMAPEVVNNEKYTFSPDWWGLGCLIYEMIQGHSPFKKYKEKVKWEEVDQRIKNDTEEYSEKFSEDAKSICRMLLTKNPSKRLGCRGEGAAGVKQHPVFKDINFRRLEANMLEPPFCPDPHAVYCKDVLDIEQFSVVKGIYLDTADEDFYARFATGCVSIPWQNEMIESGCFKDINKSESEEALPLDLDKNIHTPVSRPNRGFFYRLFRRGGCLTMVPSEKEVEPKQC
T1 sequence (P45985 whole entry): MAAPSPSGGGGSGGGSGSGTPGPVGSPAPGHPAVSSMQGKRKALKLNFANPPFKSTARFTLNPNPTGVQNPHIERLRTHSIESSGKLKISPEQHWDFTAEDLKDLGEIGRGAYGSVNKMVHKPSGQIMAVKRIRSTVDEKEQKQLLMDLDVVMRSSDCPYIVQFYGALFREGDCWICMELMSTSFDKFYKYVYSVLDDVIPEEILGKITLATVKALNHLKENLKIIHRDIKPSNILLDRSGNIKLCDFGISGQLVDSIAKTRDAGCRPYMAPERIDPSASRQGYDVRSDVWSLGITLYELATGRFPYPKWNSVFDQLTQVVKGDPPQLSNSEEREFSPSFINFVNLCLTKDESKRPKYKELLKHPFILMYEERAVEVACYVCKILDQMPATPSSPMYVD

The EC50 is the concentration giving half of the maximal effect. Low readings indicate higher potency in that assay, high ones lower potency in that assay. `CC(=O)Nc1nc2ccc(-c3cnc(Cl)c(NC(=O)Cc4ccccc4)c3)cc2s1` [PK6, N-(5-(2-acetamidobenzo[d]thiazol-6-yl)-2-chloropyridin-3-yl)-2-phenylacetamide] registered an EC50 in [1] of approximately 950 nM.

Usually clearance stands for the rate of elimination divided by the concentration. Read a high clearance as efficient removal. For orientation: AUC(0-inf) means total exposure, with the tail of the curve extrapolated. A lower AUC(0-inf) goes with low exposure. By MRT is commonly meant a mean duration of stay, worked out from the concentration-time curve. What is called half-life is how long it takes for the measured level to halve. One may read the bioavailability as the share of a dose that reaches the circulation, judged against a reference dose that is usually intravenous. Usually Tmax stands for the time from dosing to the highest level. As to `CC(=O)Nc1nc2ccc(-c3cnc(C)c(NC(=O)OC4CCCCC4)c3)cc2s1` [PK68, cyclohexyl (5-(2-acetamidobenzo[d]thiazol-6-yl)-2-methylpyridin-3-yl)carbamate], the Activity% at MKK4 (1 μM) was determined as 98.91%; at NIM1 (1 μM) it was 96.79%; at GRK4 (1 μM) it was 103.31%; at p70S6Kb/RPS6KB2 (1 μM), 95.50%; at DYRK1/DYRK1A (1 μM) it was 95.93%; on CK1a1 (1 μM), 94.49%. In addition, the activity at 1 µM amounted to 99.1% on MKK4; 97.5% on NIM1; 107% at GRK4; 98.8% on p70S6Kb/RPS6KB2; 97.4% on DYRK1/DYRK1A; 97% on CK1a1. In addition, the “transmigration of RFP-LL/2 cells through the endothelial cell monolayer” value in data set [2] is given as “attenuated”. Also, the “body weight and behavior” value in data set [3] (setting [5]) is “normal body weight and behavior”. In addition, in data set [3] (setting [5]), the tolerability entry was “well tolerated”. Besides, in data set [3] (14-day course, 25 mg/kg), the toxicity in mice entry was “no obvious toxicity; also recorded: no detectable toxicity”. In addition, the “histology of lung, liver, and heart” value in data set [3] (14-day treatment) was “normal morphology”. In [4] (iv, 2 mg/kg, IV (Bolus)), this compound came in with a clearance of 21 mL/min/kg. For the same compound, the Vd in data set [4] (iv, 2 mg/kg, IV (Bolus), read-out: Vss) stood at 1 L/kg. For the same compound, the AUC(0-inf) in [4] (2 mg/kg, IV (Bolus)) came out at 1590 ng·h/mL; in data set [4] (10 mg/kg, PO (Gavage)), 4900 ng·h/mL. In addition, the MRT in data set [4] (2 mg/kg, IV (Bolus)) came to 0.8 h; in data set [4] (10 mg/kg, PO (Gavage)), 1.8 h. Besides, the half-life is 1 h in data set [4] (2 mg/kg, IV (Bolus)) and 1.3 h in data set [4] (10 mg/kg, PO (Gavage)). The AUC(0-t) was determined as 1590 ng·h/mL in data set [4] (2 mg/kg, IV (Bolus)) and 4820 ng·h/mL in data set [4] (10 mg/kg, PO (Gavage)). The bioavailability in data set [4] (10 mg/kg, PO (Gavage), read-out: F(%) oral bioavailability) turned out to be 61%. Also, the Cmax was approximately 4 µM in data set [4] (po, orally 10 mg/kg, read-out: plasma concentration translated from Cmax) and 2420 ng/mL in data set [4] (PO (Gavage), 10 mg/kg, read-out: Cmax). In data set [4] (PO (Gavage), 10 mg/kg), the Tmax is 0.5 h.
